Some targets named below: STK39 (Homo sapiens, UniProt Q9UEW8); LCK (Homo sapiens, UniProt P06239); KIT(A829P) (Homo sapiens, UniProt P10721, A829P); ACVR2B (Homo sapiens, UniProt Q13705).
What all share (experiment): biochemical
Set-up in all cases: DiscoveRx KINOMEscan active site-directed competition binding; percent of control kinase bound to immobilised ligand

For assay [1], the target named is T1, RSK2(Kin.Dom.1-N-terminal) (Homo sapiens, UniProt P51812).
T1 construct: gene RPS6KA3; Kin.Dom.1-N-terminal
T1 sequence (P51812 whole entry): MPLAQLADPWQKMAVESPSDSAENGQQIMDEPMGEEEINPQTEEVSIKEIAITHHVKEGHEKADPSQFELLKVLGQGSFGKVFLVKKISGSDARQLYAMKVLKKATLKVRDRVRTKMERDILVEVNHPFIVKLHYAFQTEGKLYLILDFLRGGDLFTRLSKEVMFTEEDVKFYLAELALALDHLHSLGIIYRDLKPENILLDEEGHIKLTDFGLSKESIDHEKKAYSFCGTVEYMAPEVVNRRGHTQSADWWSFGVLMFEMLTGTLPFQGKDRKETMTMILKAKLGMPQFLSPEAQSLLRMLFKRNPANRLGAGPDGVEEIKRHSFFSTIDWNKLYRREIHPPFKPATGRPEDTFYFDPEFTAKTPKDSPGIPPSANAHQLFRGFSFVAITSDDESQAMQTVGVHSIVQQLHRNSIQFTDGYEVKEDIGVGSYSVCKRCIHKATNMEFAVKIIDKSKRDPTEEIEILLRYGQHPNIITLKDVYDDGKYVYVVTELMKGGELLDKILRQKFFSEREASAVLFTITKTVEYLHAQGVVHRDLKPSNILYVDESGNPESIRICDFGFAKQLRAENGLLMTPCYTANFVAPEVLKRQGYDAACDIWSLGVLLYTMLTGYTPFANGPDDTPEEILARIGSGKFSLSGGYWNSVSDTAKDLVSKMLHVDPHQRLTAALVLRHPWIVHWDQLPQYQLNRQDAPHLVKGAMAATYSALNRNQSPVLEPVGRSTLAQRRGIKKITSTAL

Another assay deals with T2, IKK-alpha (Homo sapiens, UniProt O15111).
T2 construct: gene CHUK
T2 sequence (O15111 1-745): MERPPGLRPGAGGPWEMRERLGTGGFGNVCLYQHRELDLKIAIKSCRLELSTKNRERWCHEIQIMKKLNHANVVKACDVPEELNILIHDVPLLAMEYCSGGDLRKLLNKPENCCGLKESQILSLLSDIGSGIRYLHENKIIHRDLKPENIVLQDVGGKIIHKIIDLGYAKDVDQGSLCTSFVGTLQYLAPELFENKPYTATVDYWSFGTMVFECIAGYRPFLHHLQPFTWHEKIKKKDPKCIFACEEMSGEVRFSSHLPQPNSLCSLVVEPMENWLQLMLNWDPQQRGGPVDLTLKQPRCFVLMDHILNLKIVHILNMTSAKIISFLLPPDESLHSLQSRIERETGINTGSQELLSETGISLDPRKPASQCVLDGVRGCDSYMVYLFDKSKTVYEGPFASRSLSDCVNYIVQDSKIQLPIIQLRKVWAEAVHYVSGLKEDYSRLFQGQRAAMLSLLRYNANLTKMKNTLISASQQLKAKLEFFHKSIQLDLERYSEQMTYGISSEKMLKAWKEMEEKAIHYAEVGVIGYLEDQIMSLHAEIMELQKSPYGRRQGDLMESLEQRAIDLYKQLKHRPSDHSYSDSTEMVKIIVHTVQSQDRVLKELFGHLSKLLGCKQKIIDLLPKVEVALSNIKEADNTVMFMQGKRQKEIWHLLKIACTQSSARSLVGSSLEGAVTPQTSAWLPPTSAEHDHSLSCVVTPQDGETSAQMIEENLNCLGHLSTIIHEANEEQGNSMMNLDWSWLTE

The target of assay [2] is T3, ABL1(F317L)-phosphorylated (Homo sapiens, UniProt P00519, F317L).
T3 construct: phosphorylated
T3 sequence (P00519 whole entry F317L): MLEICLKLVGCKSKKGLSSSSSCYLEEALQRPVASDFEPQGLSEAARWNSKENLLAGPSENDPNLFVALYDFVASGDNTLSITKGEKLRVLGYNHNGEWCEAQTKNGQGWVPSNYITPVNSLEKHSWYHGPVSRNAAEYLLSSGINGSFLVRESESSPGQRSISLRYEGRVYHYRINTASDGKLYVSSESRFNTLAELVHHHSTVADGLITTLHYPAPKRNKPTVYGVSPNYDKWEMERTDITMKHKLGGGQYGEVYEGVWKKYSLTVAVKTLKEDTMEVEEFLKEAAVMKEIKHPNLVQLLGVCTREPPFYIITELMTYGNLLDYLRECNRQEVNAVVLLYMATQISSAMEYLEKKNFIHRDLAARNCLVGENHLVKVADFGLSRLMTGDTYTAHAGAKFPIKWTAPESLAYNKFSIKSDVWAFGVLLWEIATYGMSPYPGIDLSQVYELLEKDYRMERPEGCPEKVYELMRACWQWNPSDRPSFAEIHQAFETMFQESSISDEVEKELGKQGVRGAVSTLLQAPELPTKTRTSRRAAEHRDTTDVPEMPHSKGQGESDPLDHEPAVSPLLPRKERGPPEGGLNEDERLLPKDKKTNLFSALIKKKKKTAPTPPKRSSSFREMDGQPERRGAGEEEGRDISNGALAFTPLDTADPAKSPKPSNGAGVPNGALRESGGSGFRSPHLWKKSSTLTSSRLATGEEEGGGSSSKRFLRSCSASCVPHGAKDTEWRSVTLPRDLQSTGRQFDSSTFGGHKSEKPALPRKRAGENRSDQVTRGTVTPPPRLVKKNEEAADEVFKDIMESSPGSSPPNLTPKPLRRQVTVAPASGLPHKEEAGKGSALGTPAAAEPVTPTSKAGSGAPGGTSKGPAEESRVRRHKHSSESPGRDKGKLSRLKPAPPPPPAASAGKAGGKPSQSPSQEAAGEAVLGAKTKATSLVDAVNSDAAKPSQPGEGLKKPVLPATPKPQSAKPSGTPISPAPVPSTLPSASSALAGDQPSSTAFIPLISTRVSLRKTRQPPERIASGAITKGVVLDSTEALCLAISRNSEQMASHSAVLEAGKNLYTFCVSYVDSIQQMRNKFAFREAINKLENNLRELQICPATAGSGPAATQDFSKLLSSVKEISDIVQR

For another assay, the target named is T4, FLT3(ITD,F691L) (Homo sapiens, UniProt P36888, F691L/ITD).
T4 sequence (P36888 564-993 F691L): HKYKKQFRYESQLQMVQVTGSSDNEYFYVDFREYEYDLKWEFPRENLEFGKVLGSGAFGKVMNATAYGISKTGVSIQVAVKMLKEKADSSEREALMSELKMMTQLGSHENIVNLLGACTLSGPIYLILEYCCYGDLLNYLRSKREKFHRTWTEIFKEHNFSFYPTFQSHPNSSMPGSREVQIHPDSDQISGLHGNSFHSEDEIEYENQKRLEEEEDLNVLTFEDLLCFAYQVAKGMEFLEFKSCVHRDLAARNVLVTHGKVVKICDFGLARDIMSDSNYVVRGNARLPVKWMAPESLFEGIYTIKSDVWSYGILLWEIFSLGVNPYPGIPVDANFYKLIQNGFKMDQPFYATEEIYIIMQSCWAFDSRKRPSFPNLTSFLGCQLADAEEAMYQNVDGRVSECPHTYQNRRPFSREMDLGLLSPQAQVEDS

In a further assay the target is T5, PFTK1 (Homo sapiens, UniProt O94921).
T5 construct: gene CDK14
T5 sequence (O94921 whole entry): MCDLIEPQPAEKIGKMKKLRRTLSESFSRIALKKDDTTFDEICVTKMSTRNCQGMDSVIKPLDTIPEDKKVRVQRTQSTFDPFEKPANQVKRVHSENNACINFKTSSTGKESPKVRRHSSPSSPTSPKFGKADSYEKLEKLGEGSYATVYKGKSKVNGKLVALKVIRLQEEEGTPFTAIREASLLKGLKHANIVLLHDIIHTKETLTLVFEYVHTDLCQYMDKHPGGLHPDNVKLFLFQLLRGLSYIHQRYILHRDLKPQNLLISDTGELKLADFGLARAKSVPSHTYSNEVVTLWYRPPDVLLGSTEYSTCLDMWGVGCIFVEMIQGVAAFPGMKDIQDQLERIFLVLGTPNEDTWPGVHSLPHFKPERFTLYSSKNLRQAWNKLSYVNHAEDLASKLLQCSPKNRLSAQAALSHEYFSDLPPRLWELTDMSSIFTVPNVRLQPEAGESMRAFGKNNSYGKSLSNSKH

Another assay has as its target T6, CAMK4 (Homo sapiens, UniProt Q16566).
T6 sequence (Q16566 1-473): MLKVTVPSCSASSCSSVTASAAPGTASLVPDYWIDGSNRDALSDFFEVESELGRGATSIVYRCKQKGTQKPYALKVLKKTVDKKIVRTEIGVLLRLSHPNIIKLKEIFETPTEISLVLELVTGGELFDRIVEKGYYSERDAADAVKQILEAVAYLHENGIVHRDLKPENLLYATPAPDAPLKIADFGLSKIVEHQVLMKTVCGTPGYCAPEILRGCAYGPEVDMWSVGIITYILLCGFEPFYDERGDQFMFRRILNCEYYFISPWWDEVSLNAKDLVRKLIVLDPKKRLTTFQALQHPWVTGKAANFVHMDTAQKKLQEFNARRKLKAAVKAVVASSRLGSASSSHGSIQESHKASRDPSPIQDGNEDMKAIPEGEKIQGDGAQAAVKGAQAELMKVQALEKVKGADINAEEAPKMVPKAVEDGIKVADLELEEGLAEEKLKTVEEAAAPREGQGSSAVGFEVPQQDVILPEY

The target of the next assay is T7, NDR2 (Homo sapiens, UniProt Q9Y2H1).
T7 construct: gene STK38L
T7 sequence (Q9Y2H1 whole entry): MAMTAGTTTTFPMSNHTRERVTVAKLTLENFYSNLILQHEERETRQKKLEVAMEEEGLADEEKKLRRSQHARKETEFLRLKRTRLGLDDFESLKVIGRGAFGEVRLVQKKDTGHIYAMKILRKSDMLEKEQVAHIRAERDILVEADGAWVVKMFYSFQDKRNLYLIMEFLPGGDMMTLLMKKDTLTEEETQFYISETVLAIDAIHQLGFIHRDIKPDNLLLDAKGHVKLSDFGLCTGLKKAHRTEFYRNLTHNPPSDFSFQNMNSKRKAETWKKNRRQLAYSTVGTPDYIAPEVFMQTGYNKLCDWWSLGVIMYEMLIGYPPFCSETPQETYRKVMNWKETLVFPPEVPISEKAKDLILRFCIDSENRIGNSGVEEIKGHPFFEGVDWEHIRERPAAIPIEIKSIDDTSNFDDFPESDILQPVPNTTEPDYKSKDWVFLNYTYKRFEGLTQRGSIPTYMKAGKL

Setting [3] is: read-out: Niraparib (MK-4827) / %Ctrl @ 10000nM.
[4] abbreviates: read-out: Olaparib / %Ctrl @ 10000nM.
The mark [5] stands for this setting: read-out: Rucaparib / %Ctrl @ 10000nM, binding competition, % of control.
[6] abbreviates: read-out: Talazoparib (BMN 673) / %Ctrl @ 10000nM.

Read-outs that look alike come from different tables or passages of the source.

Sequence of LCK (P06239 whole entry): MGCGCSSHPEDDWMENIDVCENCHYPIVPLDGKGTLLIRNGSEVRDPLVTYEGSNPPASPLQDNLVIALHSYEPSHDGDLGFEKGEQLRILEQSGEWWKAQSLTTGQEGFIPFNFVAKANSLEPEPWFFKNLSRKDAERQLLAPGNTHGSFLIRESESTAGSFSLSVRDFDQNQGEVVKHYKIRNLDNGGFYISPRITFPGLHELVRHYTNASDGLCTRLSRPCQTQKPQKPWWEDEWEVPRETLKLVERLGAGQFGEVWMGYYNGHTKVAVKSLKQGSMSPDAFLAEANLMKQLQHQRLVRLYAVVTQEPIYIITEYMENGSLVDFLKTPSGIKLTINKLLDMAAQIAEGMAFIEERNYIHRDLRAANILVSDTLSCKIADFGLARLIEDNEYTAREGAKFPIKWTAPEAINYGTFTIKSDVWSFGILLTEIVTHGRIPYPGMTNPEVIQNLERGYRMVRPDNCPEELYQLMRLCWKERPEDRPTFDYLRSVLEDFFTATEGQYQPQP
Sequence of ACVR2B (Q13705 whole entry): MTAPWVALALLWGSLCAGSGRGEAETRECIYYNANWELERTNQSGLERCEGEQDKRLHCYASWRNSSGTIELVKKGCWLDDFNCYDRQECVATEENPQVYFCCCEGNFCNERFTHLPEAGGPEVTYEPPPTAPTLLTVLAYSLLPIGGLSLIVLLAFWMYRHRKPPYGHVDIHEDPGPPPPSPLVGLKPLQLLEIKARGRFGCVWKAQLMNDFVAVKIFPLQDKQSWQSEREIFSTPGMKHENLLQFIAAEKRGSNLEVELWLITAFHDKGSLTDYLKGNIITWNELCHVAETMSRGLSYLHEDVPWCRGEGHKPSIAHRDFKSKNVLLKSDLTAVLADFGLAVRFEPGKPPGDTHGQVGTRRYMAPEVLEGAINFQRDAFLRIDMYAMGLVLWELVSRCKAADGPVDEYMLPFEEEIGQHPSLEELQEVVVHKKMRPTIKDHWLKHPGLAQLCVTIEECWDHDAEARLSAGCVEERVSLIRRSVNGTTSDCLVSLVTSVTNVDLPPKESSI
Sequence of KIT(A829P) (P10721 whole entry A829P): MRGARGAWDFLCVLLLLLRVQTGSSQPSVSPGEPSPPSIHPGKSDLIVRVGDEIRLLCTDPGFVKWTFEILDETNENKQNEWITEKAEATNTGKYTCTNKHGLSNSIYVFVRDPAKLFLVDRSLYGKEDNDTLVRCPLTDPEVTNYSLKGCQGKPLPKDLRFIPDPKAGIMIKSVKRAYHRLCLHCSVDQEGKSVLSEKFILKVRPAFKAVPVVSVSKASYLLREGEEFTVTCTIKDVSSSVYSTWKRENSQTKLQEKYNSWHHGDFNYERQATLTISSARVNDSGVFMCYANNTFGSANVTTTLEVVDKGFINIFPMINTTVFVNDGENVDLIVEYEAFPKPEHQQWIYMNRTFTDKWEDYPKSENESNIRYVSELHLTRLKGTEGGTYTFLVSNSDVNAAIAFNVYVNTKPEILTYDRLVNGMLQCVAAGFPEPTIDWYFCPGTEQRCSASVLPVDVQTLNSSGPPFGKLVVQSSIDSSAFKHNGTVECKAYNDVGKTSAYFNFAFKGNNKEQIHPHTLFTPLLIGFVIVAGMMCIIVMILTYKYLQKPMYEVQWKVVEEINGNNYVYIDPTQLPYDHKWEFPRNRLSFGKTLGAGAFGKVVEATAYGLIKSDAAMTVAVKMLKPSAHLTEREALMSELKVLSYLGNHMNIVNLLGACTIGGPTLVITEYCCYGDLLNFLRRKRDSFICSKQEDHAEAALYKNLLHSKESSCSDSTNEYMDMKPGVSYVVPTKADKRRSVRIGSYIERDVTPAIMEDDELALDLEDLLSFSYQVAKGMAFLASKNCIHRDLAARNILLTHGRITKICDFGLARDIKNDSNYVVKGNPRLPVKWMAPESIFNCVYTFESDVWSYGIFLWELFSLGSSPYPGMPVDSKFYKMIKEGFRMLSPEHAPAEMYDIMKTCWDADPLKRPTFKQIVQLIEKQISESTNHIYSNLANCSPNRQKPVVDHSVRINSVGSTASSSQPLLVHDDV

`NC(=O)c1cccc2cn(-c3ccc([C@@H]4CCCNC4)cc3)nc12` [Niraparib]: the percent of control binding at 10 µM worked out at 94% in [1] (setting [3]); 70% at STK39 (setting [3]); 100% at IKK-alpha (setting [3]); 100% in assay [2] (setting [3]); 82% on LCK (setting [3]); 42% on FLT3(ITD,F691L) (setting [3]). Besides, the percent of control binding at 10 µM worked out at 88% at PFTK1 (setting [3]); 100% at CAMK4 (setting [3]); 98% on KIT(A829P) (setting [3]); 77% on NDR2 (setting [3]); 100% at ACVR2B (setting [3]).
As for `O=C(c1cc(Cc2n[nH]c(=O)c3ccccc23)ccc1F)N1CCN(C(=O)C2CC2)CC1` [Olaparib], the percent of control binding at 10 µM in assay [1] (setting [4]) was 94%; at STK39 (setting [4]), 92%; at IKK-alpha (setting [4]), 79%; in [2] (setting [4]) it was 95%; on LCK (setting [4]), 100%; on FLT3(ITD,F691L) (setting [4]), 84%. The percent of control binding at 10 µM on PFTK1 (setting [4]) amounted to 100%; on CAMK4 (setting [4]), 93%; at NDR2 (setting [4]), 97%; on ACVR2B (setting [4]), 100%.
Take `CNCc1ccc(-c2[nH]c3cc(F)cc4c3c2CCNC4=O)cc1` [Rucaparib]: the percent of control binding at 10 µM in assay [1] (setting [5]) was found to be 52%; on STK39 (setting [5]), 73%; at IKK-alpha (setting [5]), 42%; in [2] (setting [5]) it was 74%; on LCK (setting [5]) it was 95%; on PFTK1 (setting [5]) it was 86%. Moreover, the percent of control binding at 10 µM was found to be 94% at CAMK4 (setting [5]), 88% on KIT(A829P) (setting [5]), 86% on NDR2 (setting [5]) and 100% on ACVR2B (setting [5]). The “Rucaparib / %Ctrl @ 10000nM” value at FLT3(ITD,F691L) (binding competition, % of control) turned out to be 26%.
In the case of `Cn1ncnc1[C@H]1c2n[nH]c(=O)c3cc(F)cc(c23)N[C@@H]1c1ccc(F)cc1` [Talazoparib], the percent of control binding at 10 µM in [1] (setting [6]) was determined as 88%; on STK39 (setting [6]), 100%; on IKK-alpha (setting [6]) it was 100%; in assay [2] (setting [6]) it was 50%; at LCK (setting [6]), 90%; at FLT3(ITD,F691L) (setting [6]) it was 100%. Besides, the percent of control binding at 10 µM was 89% at PFTK1 (setting [6]); 83% on CAMK4 (setting [6]); 100% at KIT(A829P) (setting [6]); 83% at NDR2 (setting [6]); 100% on ACVR2B (setting [6]).

The values are drawn from article PMC7026418, “The kinase polypharmacology landscape of clinical PARP inhibitors” (Scientific Reports, 2020).
